Assay results from patent publication US9744221B2, “Method and compositions for inhibiting or preventing adverse effects of oral antibiotics” (Synthetic Biologics, Inc., priority 2014, dated 2017).

Columns and labels:
intestinal microbiome = assay: Fecal microbiome whole genome shotgun sequencing in piglets given oral amoxicillin with or without SYN-004 (Example 1); type: in vivo, Yorkshire piglets; details: Day -7 to Day 9, FIGS. 3 and 4
in vivo = details: Yorkshire, pig, po, 20 mg/kg

concentration at 1 h (in vivo): 8900 ± 800 ng/mL
concentration at 3 h (in vivo): 3900 ± 300 ng/mL
concentration at 8 h (in vivo): 1500 ± 300 ng/mL
SMILES: CC1(C)S[C@@H]2[C@H](NC(=O)[C@H](N)c3ccc(O)cc3)C(=O)N2[C@H]1C(=O)O [amoxicillin, Amoxicillin]
diversity of the microbiome (median percent similarity of strain relative abundance) (intestinal microbiome): continued to lose diversity throughout the duration of the study
